pIC50: −log10 of the molar value. Residues, ends and D or L forms follow the SMILES beside them.
How the values were obtained:
[1] = target: T1, Angiotensin-converting enzyme (Homo sapiens, UniProt P12821); assay: Inhibition of ACE (unknown origin) preincubated with compound for 5 mins and measured after 60 mins
[2] = target: T1, Angiotensin-converting enzyme; assay: Inhibition of ACE (unknown origin)
Rattus norvegicus [3] = assay: Antihypertensive activity in spontaneously hypertensive male rat assessed as reduction in systolic blood pressure at 5 mg/kg, IG measured after 24 hrs by tail-cuff method; assay type: functional
Rattus norvegicus [4] = assay: Antihypertensive activity in spontaneously hypertensive male rat assessed as reduction in diastolic blood pressure at 5 mg/kg, IG measured after 24 hrs by tail-cuff method; assay type: functional

T1 sequence (P12821 whole entry): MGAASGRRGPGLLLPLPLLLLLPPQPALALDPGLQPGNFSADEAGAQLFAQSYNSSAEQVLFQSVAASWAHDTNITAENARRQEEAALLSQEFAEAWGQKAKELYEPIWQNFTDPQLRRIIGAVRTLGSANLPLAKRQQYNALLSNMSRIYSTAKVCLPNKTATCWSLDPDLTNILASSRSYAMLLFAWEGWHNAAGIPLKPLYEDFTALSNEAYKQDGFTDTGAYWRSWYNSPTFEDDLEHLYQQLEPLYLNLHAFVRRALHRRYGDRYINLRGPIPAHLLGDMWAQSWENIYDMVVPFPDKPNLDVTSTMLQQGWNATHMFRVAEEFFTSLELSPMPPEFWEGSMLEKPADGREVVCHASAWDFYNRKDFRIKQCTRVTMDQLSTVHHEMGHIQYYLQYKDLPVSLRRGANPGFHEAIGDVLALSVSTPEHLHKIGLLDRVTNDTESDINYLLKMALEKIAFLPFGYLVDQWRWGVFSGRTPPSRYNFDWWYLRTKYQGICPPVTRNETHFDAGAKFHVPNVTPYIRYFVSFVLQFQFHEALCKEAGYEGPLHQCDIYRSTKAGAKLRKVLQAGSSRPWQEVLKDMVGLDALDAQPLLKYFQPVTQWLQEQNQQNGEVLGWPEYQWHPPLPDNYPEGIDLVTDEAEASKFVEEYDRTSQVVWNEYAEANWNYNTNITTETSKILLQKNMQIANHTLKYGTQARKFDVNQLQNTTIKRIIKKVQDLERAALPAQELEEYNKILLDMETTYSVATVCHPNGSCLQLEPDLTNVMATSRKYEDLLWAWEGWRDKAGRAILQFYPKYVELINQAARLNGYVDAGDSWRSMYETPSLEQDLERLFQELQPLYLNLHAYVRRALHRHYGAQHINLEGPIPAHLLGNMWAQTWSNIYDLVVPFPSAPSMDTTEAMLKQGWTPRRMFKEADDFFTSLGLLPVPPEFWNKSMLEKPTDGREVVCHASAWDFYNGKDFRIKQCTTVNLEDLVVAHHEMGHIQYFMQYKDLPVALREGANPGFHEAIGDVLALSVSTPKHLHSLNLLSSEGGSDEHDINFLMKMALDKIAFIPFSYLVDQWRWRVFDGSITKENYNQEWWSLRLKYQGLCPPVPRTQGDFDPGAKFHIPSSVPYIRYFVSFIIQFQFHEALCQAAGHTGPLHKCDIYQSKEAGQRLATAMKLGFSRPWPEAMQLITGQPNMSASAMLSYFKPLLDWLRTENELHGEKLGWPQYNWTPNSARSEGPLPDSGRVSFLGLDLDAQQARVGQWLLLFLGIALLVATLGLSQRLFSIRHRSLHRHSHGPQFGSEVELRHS

Structure (SMILES)	pIC50 [1]	also measured
CC(C)C[C@H](NC(=O)CNC(=O)[C@H](CCC(=O)O)NC(=O)[C@@H]1CCCN1C(=O)[C@@H](N)C(C)C)C(=O)N[C@@H](CC(N)=O)C(=O)N[C@@H](CO)C(=O)N[C@@H](Cc1c[nH]c2ccccc12)C(=O)N1CCC[C@H]1C(=O)N[C@@H](Cc1ccccc1)C(=O)O (H-VPEGLNSWPF-OH)	4.13	–
NCC(=O)N[C@@H](CCC(=O)O)C(=O)N1CCC[C@H]1C(=O)N[C@@H](Cc1ccccc1)C(=O)O (H-GEPF-OH)	4.44	–
CC(C)C[C@H](NC(=O)[C@H](CCCCN)NC(=O)[C@H](C)NC(=O)[C@@H](N)CCCCN)C(=O)O (H-KAKL-OH)	2.58	–
CC[C@H](C)[C@H](NC(=O)[C@H](CCCCN)NC(=O)[C@H](C)NC(=O)[C@@H](N)CCCCN)C(=O)O (H-KAKI-OH)	2.16	–
CC(C)C[C@H](NC(=O)[C@H](Cc1c[nH]c2ccccc12)NC(=O)[C@H](CCCCN)NC(=O)[C@H](Cc1ccccc1)NC(=O)[C@@H]1CCCN1C(=O)[C@H](CC(N)=O)NC(=O)[C@@H](NC(=O)[C@@H](NC(=O)[C@@H](N)C(C)C)[C@@H](C)O)C(C)C)C(=O)N1CCC[C@H]1C(=O)O (H-VTVNPFKWLP-OH)	–	pIC50 [2]: 5.26
C[C@H](NC(=O)[C@H](CCCCN)NC(=O)[C@H](C)NC(=O)[C@@H](N)CCCCN)C(=O)O (H-KAKA-OH)	3.18	–
CC(C)[C@H](NC(=O)[C@H](CCCCN)NC(=O)[C@H](C)NC(=O)[C@@H](N)CCCCN)C(=O)O (H-KAKV-OH)	2.53	–
CC(C)C[C@H](NC(=O)[C@H](CO)NC(=O)[C@@H](NC(=O)CNC(=O)CNC(=O)[C@H](Cc1ccc(O)cc1)NC(=O)CNC(=O)[C@@H](N)CCCCN)C(C)C)C(=O)N1CCC[C@H]1C(=O)N[C@@H](CCC(=O)O)C(=O)N[C@@H](Cc1c[nH]c2ccccc12)C(=O)O (H-KGYGGVSLPEW-OH)	–	Activity (Rattus norvegicus [3]): 20 mmHg; Activity (Rattus norvegicus [4]): 27 mmHg
C[C@H](NC(=O)[C@@H](N)CCCCN)C(=O)N1CCC[C@H]1C(=O)N[C@@H](CCCCN)C(=O)O (H-KAPK-OH)	2.84	–
